Results: patent US20200061215A1, “MALTOTRIOSE-BASED PROBES FOR FLUORESCENCE AND PHOTOACOUSTIC IMAGING OF BACTERIA” (The Board of Trustees of the Leland Stanford Junior …, priority 2018, published 2020)

Tests used:
[1] = system: E. coli; experiment: Bacteria competition assay with 3H-maltose; assay type: cell-based; details: test compound 1 mM, 1 hr at 37° C., then 3H-maltose 30 min
Procedure: A competition binding assay between the synthesized derivatives and ^3H-maltose that is taken up in bacteria by the ABC transporter, was conducted.
Aliquots of 10^8 colony forming units (CFU) of E. coli were first incubated with test compounds (1 mM) for 1 hr at 37° C. After the first incubation, the bacteria culture was centrifuged at 10,000 rpm for 5 min and pellet washed with 1×HBSS three times. Pellets were suspended in a solution of ^3H-maltose (1 μCi in 200 μL HBSS (1×); American Radiolabeled Chemicals, Inc., USA) and incubated for 30 min at 37° C. Aliquots were centrifuged and washed with 1×HBSS three times before lysing in a bacterial lysis buffer (BugBuster, EMD, Billerica Mass. USA). Activity in bacteria lysates was then counted in a […] and protein concentration determined using a bicinchoninic acid (BCA) assay (Pierce, Thermo Fisher Scientific). Test compounds included maltose as a positive control, azide-1-maltotriose/maltohexose and Cy7-1-maltotriose/maltohexose. In addition, aliquots incubated with only ^3H-maltose were also included to assess normal uptake. Results are shown as counts per minute (cpm) normalized to protein content (μg of protein) per sample (n=3 per study).

[2] = Stability in PBS; assay type: physicochemical; details: 37° C., up to 24 hr
Procedure: Compound 3a or 3b (100 μM) was incubated in either PBS (1×), murine, human, or rat plasma at 37° C. for up to 24 h. At each time point (0, 2, 4, 10 and 24 h), a 100 μL aliquot of the mixture was taken and added to an ice-cold acetonitrile solution (200 μL) and vortexed for 10 seconds. Samples were then centrifuged and the supernatant analyzed on the analytical HPLC column (HPLC method). […] Monitoring was at 750 nm and the area of any observed peak was assessed in each HPLC chromatogram. Bar plot representation of the compound stability is shown as % intact where

[3] = system: S. aureus-infected wound; experiment: Fluorescence and bioluminescence imaging in S. aureus wound-infection murine model; assay type: in vivo, mice; details: treated group, vancomycin for 7 days
Procedure: Female CD1 or SKH1 elite mice, 6-8 weeks old were anesthetized by isoflurane inhalation (2-3%). A small wound on the upper or lower back of the mice was formed using a sharp pair of scissors. 10^8 CFU, 10^6 CFU, or 10^4 CFU Staphylococcus aureus in 20 μL saline was inoculated into a small pocket subcutaneously before sealing the wound with Vetbond adhesive (1469SB; 3M).
After subcutaneous inoculation of 10^8 CFU (n=5), 10^6 CFU (n=3) and 10^4 CFU (n=3) of S. aureus in the wound, Cy7-1-maltotriose (5 nmol in 2% DMSO/saline, 100 μL injection) was injected via the tail vein. To insure no other infections occur, a daily dose of kanamycin (800 mg/kg) was given to the mice intramuscularly. Fluorescence and bioluminescence images were then captured at 5 and 20 hr post injection of the probe. Image analysis was conducted using Living Image® software.
Fluorescence and Bioluminescence Imaging: After subcutaneous inoculation of 10^6 CFU (n=9) of kanamycin-resistant S. aureus in the wound, mice were administered kanamycin (800 mg/kg) intramuscularly once daily to insure no other bacterial infections occur. Two days after surgery, Cy7-1-maltotriose (10 nmol in 2% DMSO/saline, 200 μL injection) was injected via the tail vein and bioluminescence and fluorescence imaging were performed at 19, 45, 69, 93 and 144 hrs post injection. […]

[4] = Plasma stability, human plasma; assay type: in vitro ADME; details: 37° C.
Procedure: Samples were then centrifuged and the supernatant analyzed on the analytical HPLC column (HPLC method). […] Monitoring was at 750 nm and the area of any observed peak was assessed in each HPLC chromatogram.

OC[C@H]1O[C@H](O[C@H]2[C@H](O)[C@@H](O)C(O)O[C@@H]2CO)[C@H](O)[C@@H](O)[C@@H]1O (mixture of isomers) [maltose]
3H-maltose uptake in E. coli when pre-incubated with test compound [1]: significant reduction

OC[C@H]1O[C@H](O[C@H]2[C@H](O)[C@@H](O)[C@@H](O[C@H]3[C@H](O)[C@@H](O)[C@@H](O[C@H]4[C@H](O)[C@@H](O)[C@@H](O[C@H]5[C@H](O)[C@@H](O)[C@@H](O[C@H]6[C@H](O)[C@@H](O)C(O)O[C@@H]6CO)O[C@@H]5CO)O[C@@H]4CO)O[C@@H]3CO)O[C@@H]2CO)[C@H](O)[C@@H](O)[C@@H]1O (stereo partly shown) [maltohexose]
stability in PBS [2]: stable | 3H-maltose uptake in E. coli when pre-incubated with test compound [1]: significant reduction

CN[C@H](CC(C)C)C(=O)N[C@H]1C(=O)N[C@@H](CC(N)=O)C(=O)N[C@H]2C(=O)N[C@H]3C(=O)N[C@H](C(=O)N[C@H](C(=O)O)c4cc(O)cc(O)c4-c4cc3ccc4O)[C@H](O)c3ccc(c(Cl)c3)Oc3cc2cc(c3O[C@@H]2O[C@H](CO)[C@@H](O)[C@H](O)[C@H]2O[C@H]2C[C@](C)(N)[C@H](O)[C@H](C)O2)Oc2ccc(cc2Cl)[C@H]1O [vancomycin]
S. aureus infection in wound after treatment (FLI image, confirmed by BLI) [3]: complete disappearance of S. aureus infection

maltotriose
stability in PBS [2]: stable | degradation in human plasma [4]: no degradation | 3H-maltose uptake in E. coli when pre-incubated with test compound [1]: significant reduction
